“Also recorded” adds a separate entry of the source.
Experiments:
[1] = molecular target: T1, novel mammalian opioid receptor (LC132, OFQR) (Rattus norvegicus, UniProt P35370); assay type: binding
T1 construct: The entire coding region of the receptor cDNA insert was subcloned into the RcRVS vector; expressed in transfected cells

DBA/2J mice = experiment: Morphine hypothermia and Straub tail, core body temperature
Swiss-Webster mice [2] = experiment: Reversal of morphine analgesia, 49° C. TW test; assay type: in vivo, mouse
Swiss-Webster mice [3] = experiment: Tail-withdrawal (TW) test 46° C., stress-induced analgesia; assay type: in vivo, mouse; settings: for hyperalgesia: 46° C. TW test; for effect on the 4 s post-injection increase in TW latency (stress-induced analgesia): OFQ 10 nmole icv, naloxone 1 mg/kg sc
Procedure: The latency to respond to the heat stimulus by a vigorous flexion of the tail was measured to the nearest 0.1 s by an experienced observer blind to the drug condition of the animal. Mice were lightly restrained in a cloth/cardboard holder during testing. In the absence of a withdrawal reflex or other indication of distress, the tail was removed from the water after a cut-off latency of 15 s. To improve accuracy, three separate TW latency determinations, separated by 20 s, were made and averaged at each test. […] Because there were no changes in post-injection TW latencies in any group with repeated testing at 10, 20 and 30 min post-injection, data from these time points were pooled.

mice [4] = experiment: Acetic acid abdominal constriction (AC, writhing) test; assay type: in vivo, mouse; settings: for effect on SIA (decreased number of abdominal constrictions): OFQ 2.5 nmole icv, NAL sc
Procedure: This test is an extremely sensitive measure of tonic, chemically-induced pain stimulus.
The AC assay was a modification of the technique originally described by Koster et al. Mice (N=9-15 per group) were acclimated to individual cylindrical Plexiglass observation chambers for >30 minutes. […] A separate group of Sal-treated mice received no icv injection (None). Between 5 and 10 minutes later, all mice were given an intraperitoneal (ip) injection of 0.9% acetic acid and placed back in their observation chambers. For the next 30 minutes, the number of abdominal constrictions (lengthwise stretches of the torso with a concomitant concave arching of the back) were counted and recorded. Four mice in separate chambers were observed simultaneously by a single experimenter blind to drug condition.

mice [5] = experiment: Open-field observation and locomotor activity after icv administration; assay type: in vivo, mouse
Procedure: For these experiments, the peptide was administered intracerebroventricularly (icv) and intrathecally (it) in mice. Immediately after peptide administration, mice were placed in transparent boxes in groups of three, and behavioral signs recorded. Emphasis was placed on signs indicative of depressant, stimulant and autonomic effects of the peptide (as described by Irwin, 1968, Psychopharmacologia 13: 222). […] The effects of the peptide on horizontal and vertical locomotor activity was measured using Digiscan Animal Activity Monitors (Omnitech, Columbus, Ohio). The values for horizontal and vertical locomotor activity represent the total number of interruptions of the horizontal and vertical sensors during the first 10 minutes following administration of the peptide. Data are shown as the mean±standard error of the mean.

[6] = Meunier et al., Nature 377,532-535 (1995); cited from earlier work
mice [7] = experiment: Nociception in mice (hot plate, toe- and tail-pinch) after icv or intrathecal administration; assay type: in vivo, mouse
C57BL/6J mice = experiment: Precipitation of withdrawal in morphine dependent mice (withdrawal jumping); assay type: in vivo, mouse
[8] = test system: untransfected COS-7 and Ltk^− cells; experiment: Radioligand binding to membranes of untransfected cells (control); settings: untransfected cell membranes

T1 sequence (P35370 whole entry): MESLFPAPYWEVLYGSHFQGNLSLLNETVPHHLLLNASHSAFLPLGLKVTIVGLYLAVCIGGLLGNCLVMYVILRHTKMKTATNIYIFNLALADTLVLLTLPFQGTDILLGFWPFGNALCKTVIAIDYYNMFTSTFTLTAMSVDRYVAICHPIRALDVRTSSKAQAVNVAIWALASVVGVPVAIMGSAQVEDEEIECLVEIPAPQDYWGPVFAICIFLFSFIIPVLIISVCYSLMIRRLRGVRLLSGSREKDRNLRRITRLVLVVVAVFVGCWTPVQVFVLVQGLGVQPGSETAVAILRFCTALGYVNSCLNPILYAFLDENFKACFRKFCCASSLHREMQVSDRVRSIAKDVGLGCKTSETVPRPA

C[C@@H](NC(=O)[C@@H](N)Cc1ccc(O)cc1)C(=O)NCC(=O)N(C)[C@@H](Cc1ccccc1)C(=O)NCCO [DAMGO, Tyr-DAla-Gly-Met-Phe-Gly-ol]
specific binding of the radioactively-labeled ligand [1]: no specific binding

CC(C)C[C@H](NC(=O)[C@H](CCCCN)NC(=O)[C@H](CCCNC(=N)N)NC(=O)[C@H](C)NC(=O)[C@H](CO)NC(=O)[C@H](CCCCN)NC(=O)[C@H](CCCNC(=N)N)NC(=O)[C@H](C)NC(=O)CNC(=O)[C@@H](NC(=O)[C@H](Cc1ccccc1)NC(=O)CNC(=O)CNC(=O)[C@@H](N)Cc1ccccc1)[C@@H](C)O)C(=O)N[C@@H](C)C(=O)N[C@@H](CC(N)=O)C(=O)N[C@@H](CCC(N)=O)C(=O)O [OFQ]
reversal of 20 mg/kg MOR hypothermia (DBA/2J mice; 5 and 10 nmole i.c.v., 60-90 minutes post-MOR injection): significantly reversed | effect of the substance itself on body temperature (DBA/2J mice; 5 or 10 nmole i.c.v.): did not affect body temperature | elimination of morphine Straub tail (DBA/2J mice; at least 5 nmole OFQ icv): effectively eliminated Straub tail in the vast majority of animals | time to elimination of Straub tail following icv injection (DBA/2J mice; at least 5 nmole OFQ icv): 1 to 2 min | reversal of morphine analgesia (Swiss-Webster mice [2]; OFQ 2.5-25 nmole i.c.v.): reversed this analgesia in a dose-dependent manner | ED50, 50% inhibition of 5 mg/kg morphine analgesia (Swiss-Webster mice [2]; i.c.v. in a 2.5 μl volume, linear regression): 7.5 nmol | hyperalgesia (Swiss-Webster mice [3]): no evidence of hyperalgesia | effect on the 4 s post-injection increase in TW latency (stress-induced analgesia) (Swiss-Webster mice [3]): attenuated | inhibition of the analgesic effect of morphine (mice [4]; 2.5 nmole icv, within 30 minutes): pharmaceutically sufficient to inhibit the analgesic effect of morphine | effect on SIA (decreased number of abdominal constrictions) (mice [4]): reversed | horizontal and vertical locomotion (mice [5]; icv 0.1-10 nmole/2 μL/mouse, first 10 minutes): decrease of both horizontal and vertical locomotion | open-field behavioral signs (mice [5]; larger doses, above 1 nmole/2 μL/mouse): profound influence on locomotor activity, as well as a decrease in muscle tone, a loss of righting reflex, and ataxia | effect on pain sensitivity in tail flick and hot-plate assays [6]: induces hyperalgesia | toe- and tail-pinch reflexes (mice [7]; all doses tested): normal toe- and tail-pinch reflexes | analgesic effect in hot plate test (mice [7]; icv, hot plate 58° C., cutoff 60 sec): little analgesic effect | analgesic effect, intrathecal (mice [7]; intrathecally 2.5-10 nmole/4 μL/animal): No analgesic effect | precipitated withdrawal syndrome (withdrawal jumping) (C57BL/6J mice; OFQ 0.1-10 nmole i.c.v., 20-min testing period): equally effective in the precipitation of withdrawal; also recorded: unequivocal, albeit modest in comparison to that produced by systemic naloxone | other withdrawal symptoms (C57BL/6J mice; OFQ i.c.v.): wet-dog shakes and ptosis, were observed

CCC12CCN(CC3(O)CC3)C(Cc3ccc(O)cc31)C2(C)C (centres unmarked) [bremacozine]
specific binding of the radioactively-labeled ligand [1]: no specific binding

CN1CC[C@]23c4c5ccc(O)c4O[C@H]2[C@@H](O)CC[C@H]3[C@H]1C5 [dihydromorphine]
specific binding of the radioactively-labeled ligand [1]: no specific binding

CCC(=O)C(CC(C)N(C)C)(c1ccccc1)c1ccccc1 (centres unmarked) [methadone]
Bmax [1]: 400-450 fentomoles/μg protein | specific binding of the radioactively-labeled ligand [1]: specific binding was found | endogenous binding of the radiolabeled ligand [8]: no or negligible amounts of endogenous methadone binding

CN1CC[C@]23c4c5ccc(O)c4O[C@H]2[C@@H](O)C=C[C@H]3[C@H]1C5 [morphine]
Straub tail production (DBA/2J mice; morphine 20 mg/kg): produced Straub tail | decrease in body temperature (DBA/2J mice; morphine 20 mg/kg i.p.): 6 °C | analgesia produced (Swiss-Webster mice [2]; morphine sulfate 5 mg/kg s.c.): profound analgesia | duration of analgesia (Swiss-Webster mice [2]; morphine sulfate 5 mg/kg s.c.): about 2 hours | time of peak analgesia post-injection (Swiss-Webster mice [2]; morphine sulfate 5 mg/kg s.c.): 30 min

C=CCN1CC[C@]23c4c5ccc(O)c4O[C@H]2C(=O)CC[C@@]3(O)[C@H]1C5 [naloxone, reference compound]
hyperalgesia (Swiss-Webster mice [3]): In no case did any mouse treated with OFQ or naloxone exhibit hyperalgesia | effect on the 4 s post-injection increase in TW latency (stress-induced analgesia) (Swiss-Webster mice [3]): attenuated | effect on SIA (decreased number of abdominal constrictions) (mice [4]): reversed | endogenous binding of the radiolabeled ligand [8]: endogenous low levels of specific

c[D-penicillamine^2, D-penicillamine^5]enkephalin [DPDPE]
specific binding of the radioactively-labeled ligand [1]: no specific binding

β-endorphin: endogenous opioid peptide, 125I-labeled
specific binding of the radioactively-labeled ligand [1]: no specific binding
